In ChEMBL document CHEMBL1147326, “Goniotriol from Goniothalamus giganteus” (J Nat Prod, 1989):
≈ marks a conversion by molar mass, not a printed value.

Columns and labels:
[1] = test system: HT-29; assay: Cytotoxicity against human HT-29 cells; assay type: functional; settings: read-out: ED50 (the source's name)
[2] = test system: A549; assay: Cytotoxicity against human A549 cells; assay type: functional; settings: read-out: ED50 (the source's name)
[3] = test system: MCF7; assay: Cytotoxicity against human MCF7 cells; assay type: functional; settings: read-out: ED50 (the source's name)
[4] = test system: Artemia; assay: Toxicity in brine shrimp; assay type: organism-based; settings: in vivo
[5] = test system: Agrobacterium tumefaciens; assay: Antitumor activity against Agrobacterium tumefaciens-induced crown gall tumors in potato tuber by potato disk test; assay type: functional

## O=C1C=C[C@H](O)[C@H]([C@H](O)[C@H](O)c2ccccc2)O1 [GONIOTRIOL]
[1]
  EC50: > 10 µg/mL
[2]
  EC50: > 10 µg/mL
[3]
  EC50: 5.9 µg/mL (≈ 23.6 µM)
[4]
  LC50: 269 ppm
[5]
  inhibition (INH): 38%
